One assay addresses T1, HrcNHis (Pseudomonas syringae group genomosp. 3, UniProt Q887B5).
T1 construct: gene sctN; full-length, N-terminal His6 tag (pETNdeM-11), expressed in E. coli
The assay can be described thus: pyruvate kinase/lactate dehydrogenase-linked ATPase assay. Format: biochemical.

Assay [1] deals with T2, FliIΔ1–18.
T2 construct: gene fliI; N-terminal truncation lacking first 18 residues, N-terminal His6 tag (pETNdeM-11), expressed in E. coli
Format: biochemical. The conditions noted are these: ATP substrate, 2 mM MgCl2, pH 8.0; allosteric.

Assay [2] deals with T3, FliIHis.
T3 construct: gene fliI
The assay can be described thus: pyruvate kinase/lactate dehydrogenase-linked ATPase assay. Format: biochemical, Pseudomonas fluorescens. The conditions noted are these: 1 mM ATP, 2 mM MgCl2, pH 8.0; allosteric.

Assay [3] deals with T3, FliIHis. The conditions noted are these: no cdG; 2 mM MgCl2, 10 mM KCl, pH 8.0.
Assay [4] relates to T4, FliIΔ1–18.
T4 construct: gene fliI
The conditions noted are these: no cdG; 2 mM MgCl2, 10 mM KCl, pH 8.0.

T1 sequence (Q887B5 whole entry): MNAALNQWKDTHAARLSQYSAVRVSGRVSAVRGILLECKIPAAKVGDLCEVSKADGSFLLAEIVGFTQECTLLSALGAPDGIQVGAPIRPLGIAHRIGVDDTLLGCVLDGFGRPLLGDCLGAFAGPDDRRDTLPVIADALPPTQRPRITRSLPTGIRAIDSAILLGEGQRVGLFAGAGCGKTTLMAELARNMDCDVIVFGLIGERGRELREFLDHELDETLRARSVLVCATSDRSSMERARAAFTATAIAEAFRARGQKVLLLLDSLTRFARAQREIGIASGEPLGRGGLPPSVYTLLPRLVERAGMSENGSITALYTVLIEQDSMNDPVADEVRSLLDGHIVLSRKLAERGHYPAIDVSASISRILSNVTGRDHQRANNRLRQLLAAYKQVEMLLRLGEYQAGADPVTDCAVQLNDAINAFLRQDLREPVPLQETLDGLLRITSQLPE

For the compound `Nc1nc2c(ncn2[C@@H]2O[C@@H]3COP(=O)(O)O[C@H]4[C@@H](O)[C@H](n5cnc6c(=O)[nH]c(N)nc65)O[C@@H]4COP(=O)(O)O[C@H]3[C@H]2O)c(=O)[nH]1` [cdG], the results for the IC50 against HrcNHis, in the assay on FliIΔ1–18 [1] and at FliIHis [2] were 25.1 ± 1.14 µM, 48.8 ± 0.159 µM and 36.7 ± 1.13 µM, respectively.

Take `Nc1ncnc2c1ncn2[C@@H]1O[C@H](COP(=O)(O)OP(=O)(O)OP(=O)(O)O)[C@@H](O)[C@H]1O` [ATP]: the Km in the assay on FliIHis [3] worked out at 0.48 ± 0.03 µM; in the assay on FliIΔ1–18 [4] it was 0.45 ± 0.04 µM.

The values above are taken from article PMC4591828, “Bacterial Rotary Export ATPases Are Allosterically Regulated by the Nucleotide Second Messenger Cyclic-di-GMP” (The Journal of Biological Chemistry, 2015).
